Literature values in patent US20070123520A1 (priority 2005, published 2007).

Experiments:
[1] = tested on: influenza A viruses
[2] = tested on: methemoglobinemia; conditions: in vivo, iv, 1 mg/kg
[3] = in vivo
[4] = in vivo; remark: listed apart in the source
[5] = tested on: sheep; conditions: in vivo
[6] = in vivo; remark: listed apart in the source
[7] = in vivo; remark: listed apart in the source

CC(=O)N[C@H]1[C@H]([C@H](O)[C@H](O)CO)OC(C(=O)O)=C[C@@H]1N=C(N)N [zanamivir]
activity against influenza A viruses [1]: activity

CCOC(=O)C1=C[C@@H](OC(CC)CC)[C@H](NC(C)=O)[C@@H](N)C1 [oseltamivir]
activity against influenza A viruses [1]: activity

NC12CC3CC(CC(C3)C1)C2 [amantadine]
activity against influenza A viruses [1]: activity

CN(C)c1ccc2nc3ccc(N(C)C)cc3[s+]c2c1.[Cl-] [methylene blue, 3,7-Bis(dimethylamino)-phenothiazin-5-ium chloride]
treatment of methemoglobinemia [2]: effective
absorption from the GI tract [3]: absorbed well
Oral absorption (range) ([3]; po): 53-97%
overall elimination rate constant [4]: 0.0076 ± 0.0016 min⁻¹
methemoglobin production [5]: minimal
hematologic changes ([5]; 30 mg/kg): no hematologic changes
crossing of the blood-milk barrier [6]: crosses the blood-milk barrier easily
Side effects [7]: blue urine, occasional nausea, anemia and fever
side effects [7]: minimal side effects

CC(N)C12CC3CC(CC(C3)C1)C2 (stereo not shown) [rimantadine]
activity against influenza A viruses [1]: activity
